Data reported in patent US12077503B2, “Substituted cyclic amides and their use as herbicides” (FMC CORPORATION, priority 2015, dated 2024).

Experiments:
Type in all cases: in vivo
[1] = test system: barnyardgrass (Echinochloa crus-galli); test: Test G Pre-Emergence Protocol; details: Echinochloa crus-galli, pre-emergence, 312 h, evaluated after 13 days; for pest or weed control at 15.625 g/ha: 15.625 g ai/ha; for pest or weed control at 15.625 g/ha / pest or weed control at 250 g/ha: read-out: Barnyardgrass damage rating (100=total damage to plant; 0=no damage to plant); for pest or weed control at 62.5 g/ha: 62.5 g ai/ha, 100=total damage to plant, 0=no damage to plant, read-out: Barnyardgrass damage rating; for pest or weed control at 250 g/ha: 250 g ai/ha
Method in brief: (§1)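 Pre-emergence spray, 15.625/62.5/250 g/ha, vehicle acetone:water 50:50 + 0.5% Tween 20, applied 1 d after sowing. Glasshouse 24/16° C, 14 h light, 65% RH, watered twice daily. Visual damage rating at 13 d, 0–100 scale.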

[2] = test system: corn (Zea mays); test: Test G Pre-Emergence Protocol; details: Zea mays, pre-emergence, 312 h, evaluated after 13 days; for plant injury at 15.625 g/ha: 15.625 g ai/ha; for plant injury at 15.625 g/ha / plant injury at 250 g/ha: read-out: Corn damage rating (100=total damage to plant; 0=no damage to plant); for plant injury at 62.5 g/ha: 62.5 g ai/ha, 100=total damage to plant, 0=no damage to plant, read-out: Corn damage rating; for plant injury at 250 g/ha: 250 g ai/ha
Method in brief: as §1

[3] = test system: giant foxtail (Setaria faberi); test: Test G Pre-Emergence Protocol; details: Setaria faberi, pre-emergence, 312 h, evaluated after 13 days; for pest or weed control at 15.625 g/ha: 15.625 g ai/ha; for pest or weed control at 15.625 g/ha / pest or weed control at 250 g/ha: read-out: Foxtail, Giant damage rating (100=total damage to plant; 0=no damage to plant); for pest or weed control at 62.5 g/ha: 62.5 g ai/ha, 100=total damage to plant, 0=no damage to plant, read-out: Foxtail, Giant damage rating; for pest or weed control at 250 g/ha: 250 g ai/ha
Method in brief: as §1

[4] = test system: ivy-leaved morning glory (Ipomoea hederacea); test: Test G Pre-Emergence Protocol; details: Ipomoea, pre-emergence, 312 h, evaluated after 13 days; for pest or weed control at 15.625 g/ha: 15.625 g ai/ha; for pest or weed control at 15.625 g/ha / pest or weed control at 250 g/ha: read-out: Morningglory, Ivy-leaved damage rating (100=total damage to plant; 0=no damage to plant); for pest or weed control at 62.5 g/ha: 62.5 g ai/ha, 100=total damage to plant, 0=no damage to plant, read-out: Morningglory, Ivy-leaved damage rating; for pest or weed control at 250 g/ha: 250 g ai/ha
Method in brief: as §1

[5] = test system: redroot pigweed (Amaranthus retroflexus); test: Test G Pre-Emergence Protocol; details: Amaranthus retroflexus, pre-emergence, 312 h, evaluated after 13 days; for pest or weed control at 15.625 g/ha: 15.625 g ai/ha; for pest or weed control at 15.625 g/ha / pest or weed control at 250 g/ha: read-out: Pigweed, Redroot damage rating (100=total damage to plant; 0=no damage to plant); for pest or weed control at 62.5 g/ha: 62.5 g ai/ha, 100=total damage to plant, 0=no damage to plant, read-out: Pigweed, Redroot damage rating; for pest or weed control at 250 g/ha: 250 g ai/ha
Method in brief: as §1

[6] = test system: velvetleaf (Abutilon theophrasti); test: Test G Pre-Emergence Protocol; details: Abutilon theophrasti, pre-emergence, 312 h, evaluated after 13 days; for pest or weed control at 15.625 g/ha: 15.625 g ai/ha; for pest or weed control at 15.625 g/ha / pest or weed control at 250 g/ha: read-out: Velvetleaf damage rating (100=total damage to plant; 0=no damage to plant); for pest or weed control at 62.5 g/ha: 62.5 g ai/ha, 100=total damage to plant, 0=no damage to plant, read-out: Velvetleaf damage rating; for pest or weed control at 250 g/ha: 250 g ai/ha
Method in brief: as §1

[7] = test system: barnyardgrass (Echinochloa crus-galli); test: Test G Post-Emergence Protocol; details: Echinochloa crus-galli, post-emergence, 312 h, read-out: Barnyardgrass damage rating; for pest or weed control at 15.625 g/ha: 15.625 g ai/ha, evaluated after 13 days (100=total damage to plant; 0=no damage to plant); for pest or weed control at 62.5 g/ha: 62.5 g ai/ha; for pest or weed control at 62.5 g/ha / pest or weed control at 250 g/ha: evaluated after 13 days, 100=total damage to plant, 0=no damage to plant; for pest or weed control at 250 g/ha: 250 g ai/ha
Method in brief: (§2)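 Foliar application was made 8 days after sowing, using an aqueous spray of the active in acetone/water (50:50) with 0.5% Tween 20, at doses of 15.625, 62.5 or 250 g/ha. Injury was assessed 13 days later, where 100 meant the plant was fully damaged.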

[8] = test system: corn (Zea mays); test: Test G Post-Emergence Protocol; details: Zea mays, post-emergence, 312 h, read-out: Corn damage rating; for plant injury at 15.625 g/ha: 15.625 g ai/ha, evaluated after 13 days (100=total damage to plant; 0=no damage to plant); for plant injury at 62.5 g/ha: 62.5 g ai/ha; for plant injury at 62.5 g/ha / plant injury at 250 g/ha: evaluated after 13 days, 100=total damage to plant, 0=no damage to plant; for plant injury at 250 g/ha: 250 g ai/ha
Method in brief: as §2

[9] = test system: giant foxtail (Setaria faberi); test: Test G Post-Emergence Protocol; details: Setaria faberi, post-emergence, 312 h, read-out: Foxtail, Giant damage rating; for pest or weed control at 15.625 g/ha: 15.625 g ai/ha, evaluated after 13 days (100=total damage to plant; 0=no damage to plant); for pest or weed control at 62.5 g/ha: 62.5 g ai/ha; for pest or weed control at 62.5 g/ha / pest or weed control at 250 g/ha: evaluated after 13 days, 100=total damage to plant, 0=no damage to plant; for pest or weed control at 250 g/ha: 250 g ai/ha
Method in brief: as §2

[10] = test system: ivy-leaved morning glory (Ipomoea hederacea); test: Test G Post-Emergence Protocol; details: Ipomoea, post-emergence, 312 h, read-out: Morningglory, Ivy-leaved damage rating; for pest or weed control at 15.625 g/ha: 15.625 g ai/ha, evaluated after 13 days (100=total damage to plant; 0=no damage to plant); for pest or weed control at 62.5 g/ha: 62.5 g ai/ha; for pest or weed control at 62.5 g/ha / pest or weed control at 250 g/ha: evaluated after 13 days, 100=total damage to plant, 0=no damage to plant; for pest or weed control at 250 g/ha: 250 g ai/ha
Method in brief: as §2

[11] = test system: redroot pigweed (Amaranthus retroflexus); test: Test G Post-Emergence Protocol; details: Amaranthus retroflexus, post-emergence, 312 h, read-out: Pigweed, Redroot damage rating; for pest or weed control at 15.625 g/ha: 15.625 g ai/ha, evaluated after 13 days (100=total damage to plant; 0=no damage to plant); for pest or weed control at 62.5 g/ha: 62.5 g ai/ha; for pest or weed control at 62.5 g/ha / pest or weed control at 250 g/ha: evaluated after 13 days, 100=total damage to plant, 0=no damage to plant; for pest or weed control at 250 g/ha: 250 g ai/ha
Method in brief: as §2

[12] = test system: velvetleaf (Abutilon theophrasti); test: Test G Post-Emergence Protocol; details: Abutilon theophrasti, post-emergence, 312 h, read-out: Velvetleaf damage rating; for pest or weed control at 15.625 g/ha: 15.625 g ai/ha, evaluated after 13 days (100=total damage to plant; 0=no damage to plant); for pest or weed control at 62.5 g/ha: 62.5 g ai/ha; for pest or weed control at 62.5 g/ha / pest or weed control at 250 g/ha: evaluated after 13 days, 100=total damage to plant, 0=no damage to plant; for pest or weed control at 250 g/ha: 250 g ai/ha
Method in brief: as §2

SMILES	pest or weed control at 15.625 g/ha [1]	pest or weed control at 62.5 g/ha [1]	pest or weed control at 250 g/ha [1]	plant injury at 15.625 g/ha [2]	plant injury at 62.5 g/ha [2]	plant injury at 250 g/ha [2]	pest or weed control at 15.625 g/ha [3]	pest or weed control at 62.5 g/ha [3]	pest or weed control at 250 g/ha [3]	pest or weed control at 15.625 g/ha [4]	pest or weed control at 62.5 g/ha [4]	pest or weed control at 250 g/ha [4]	pest or weed control at 15.625 g/ha [5]	pest or weed control at 62.5 g/ha [5]	pest or weed control at 250 g/ha [5]	pest or weed control at 15.625 g/ha [6]	pest or weed control at 62.5 g/ha [6]	pest or weed control at 250 g/ha [6]	pest or weed control at 15.625 g/ha [7]	pest or weed control at 62.5 g/ha [7]	further results
COc1cc(C2CN(C)C(=O)C2C(=O)Nc2cccc(F)c2F)cc(Cl)c1F (stereo not drawn) [Compound 1705]	20%	60%	70%	0%	10%	70%	50%	70%	80%	0%	0%	10%	0%	0%	30%	0%	0%	20%	20%	30%	pest or weed control at 250 g/ha [7]: 80%; plant injury at 15.625 g/ha [8]: 10%; plant injury at 62.5 g/ha [8]: 0%; plant injury at 250 g/ha [8]: 70%; pest or weed control at 15.625 g/ha [9]: 70%; pest or weed control at 62.5 g/ha [9]: 70%; pest or weed control at 250 g/ha [9]: 80%; pest or weed control at 15.625 g/ha [10]: 0%; pest or weed control at 62.5 g/ha [10]: 20%; pest or weed control at 250 g/ha [10]: 50%; pest or weed control at 15.625 g/ha [11]: 0%; pest or weed control at 62.5 g/ha [11]: 0%; pest or weed control at 250 g/ha [11]: 30%; pest or weed control at 15.625 g/ha [12]: 0%; pest or weed control at 62.5 g/ha [12]: 0%; pest or weed control at 250 g/ha [12]: 10%
CCOc1ccc(C2CN(C)C(=O)C2C(=O)Nc2cccc(F)c2F)cc1OCC (stereo not drawn) [Compound 1716]	0%	80%	90%	0%	0%	60%	30%	90%	90%	0%	0%	0%	0%	10%	10%	0%	10%	10%	0%	60%	pest or weed control at 250 g/ha [7]: 80%; plant injury at 15.625 g/ha [8]: 0%; plant injury at 62.5 g/ha [8]: 10%; plant injury at 250 g/ha [8]: 60%; pest or weed control at 15.625 g/ha [9]: 40%; pest or weed control at 62.5 g/ha [9]: 70%; pest or weed control at 250 g/ha [9]: 80%; pest or weed control at 15.625 g/ha [10]: 0%; pest or weed control at 62.5 g/ha [10]: 0%; pest or weed control at 250 g/ha [10]: 10%; pest or weed control at 15.625 g/ha [11]: 0%; pest or weed control at 62.5 g/ha [11]: 0%; pest or weed control at 250 g/ha [11]: 0%; pest or weed control at 15.625 g/ha [12]: 0%; pest or weed control at 62.5 g/ha [12]: 0%; pest or weed control at 250 g/ha [12]: 0%
CN1CC(c2ccc(F)c(OCC(F)(F)F)c2)C(C(=O)Nc2cccc(F)c2F)C1=O (stereo not drawn) [Compound 1718]	60%	70%	90%	0%	50%	80%	60%	80%	90%	0%	0%	10%	0%	0%	60%	0%	0%	50%	50%	70%	pest or weed control at 250 g/ha [7]: 80%; plant injury at 15.625 g/ha [8]: 30%; plant injury at 62.5 g/ha [8]: 50%; plant injury at 250 g/ha [8]: 80%; pest or weed control at 15.625 g/ha [9]: 70%; pest or weed control at 62.5 g/ha [9]: 80%; pest or weed control at 250 g/ha [9]: 80%; pest or weed control at 15.625 g/ha [10]: 10%; pest or weed control at 62.5 g/ha [10]: 60%; pest or weed control at 250 g/ha [10]: 70%; pest or weed control at 15.625 g/ha [11]: 30%; pest or weed control at 62.5 g/ha [11]: 40%; pest or weed control at 250 g/ha [11]: 70%; pest or weed control at 15.625 g/ha [12]: 20%; pest or weed control at 62.5 g/ha [12]: 40%; pest or weed control at 250 g/ha [12]: 60%
